Measurements from US11839610B2 (priority 2022, dated 2023).
Where two headings read alike, the source gives them in different places.

Experiments:
[1] = system: Delta S protein pseudovirus (nCoV-S-Luc-B.1.617.2) in ACE2-293T cells; assay: microbe, parasite or virus in culture; assay type: cell-based; conditions: for Levels of viral infection, Delta, Ave.: luciferase activity, Control group as 100%; for IC50: read-out: 50% inhibitory concentrations (IC50) for viral infection, Delta, alkaloid compounds, n = 3
[2] = system: Omicron S protein pseudovirus (nCoV-S-Luc-B.1.1.529) in ACE2-293T cells; assay: microbe, parasite or virus in culture; assay type: cell-based; conditions: read-out: 50% inhibitory concentrations (IC50) for viral infection, Omicron

Row | Compound | Levels of viral infection, Delta, Ave. ([1]; Conc. 0.1 μM) [%] | Levels of viral infection, Delta, Ave. ([1]; Conc. 1 μM) [%] | Levels of viral infection, Delta, Ave. ([1]; Conc. 10 μM) [%] | IC50 [1] [nM] | IC50 [2] [nM] | Cell Viability (%) (ACE2-293T cells) | cytotoxic to the ACE2-293T cells (in words) (ACE2-293T cells) | Levels of viral infection, Delta, Ave. ([1]; Conc. 5 μM) [%] | IC50 ([1]; Pseudovirus) [nM] | IC50 ([2]; Pseudovirus) [nM] | Cell Viability (%) (ACE2-293T cells; human)
1 | COc1cc2c3cc1Oc1c4c(cc5c1[C@H](Cc1ccc(cc1)Oc1cc(ccc1O)C[C@H]3N(C)CC2)N(C)CC5)OCO4 [Cepharanoline] | 89.65 | 64.01 | −3.64 | 1640 ± 180 | 1310 ± 70 | 97.24 ± 0.87 | caused no damages | – | – | – | –
2 | Cycleanine | 118.65 | 88.48 | −3.84 | 2210 ± 500 | 530 ± 30 | – | – | – | – | – | –
3 | COc1ccc2cc1Oc1ccc(cc1)C[C@H]1c3cc(c(OC)cc3CCN1C)Oc1c(O)c(OC)cc3c1[C@H](C2)N(C)CC3 [Fangchinoline] | – | 64.54 | 7.13 | – | – | – | caused no damages | 27.89 | 1820 ± 20 | 1440 ± 60 | 95.56 ± 2.82
